The nature of one series: in vitro. The note with it: pig, permeability coefficient for fluorescein. An excerpt: (§1) Monolayers of primary cultures of porcine brain microvascular endothelial cells (PBEC) represent an in vitro model of the blood-brain barrier. They form monolayers under standard culture conditions both on various collagen coated solid substrates and permeable filters of polycarbonate. The PBEC-monolayer grows on the filter membranes in polarized manner with the apical side representing the capillary lumen but the basolateral side corresponding to brain tissue. As soon as the cells become confluent and build up a tight layer after 7 days PBEC are ready to be used for transport experiments. Due to the formation of functional tight junctions, they show a high transendothelial electrical resistance (TEER) and a tight barrier is created with biological properties similar to the cerebral capillary endothelium
(§2) The PBEC cells were cultivated in M199, which was supplemented with 10% OS, 0.7 mM L^−1 glutamine, 10,000 U·mL^−1 penicillin/streptomycin and 50·μg mL^−1 gentamicin at 37° C., 5% CO2 and saturated humidity. The cells were subcultivated after being detached with trypsin-EDTA solution and sown on Transwell(r) filter inserts (Costar®, Wiesbaden, Germany). The filters consist of polycarbonate with a surface of 1.13 cm2 and a pore diameter of 0.4 μm.
(§3) The growth of the PBEC into confluent, differentiated monolayers on Transwell® filter inserts was verified by measurements of the TEER. […] Fluorescein passes the monolayer paracellularly, whereas propranolol is transported transcellularly. The transport studies were carried out directly on the Transwell® plates. The culture medium M199 in the apical and the basolateral compartment was replaced by serum free medium DME/Ham's F12 supplemented as described for M199 and with 0.2 μg·mL^−1 hydrocortisone one day prior to the experiment. All transport experiments involving cell-cultures were carried out as triplicates. For application of substances on the apical side half of the medium of aspirated, mixed with appropriate stock solution of the substance to be investigated and replaced onto the filter. For qualification of transcellular transport by propranolol, KRB replaced the DME/Ham's F12 as transport buffer. For transport across cell free filter inserts, the complete medium in the apical compartment was removed, mixed with stock solution and replaced into the donor compartment. […] Propranolol was dissolved in KRB (pH 7.4). Samples were collected at 15′, 30′, 45′, 60′, and 90′ from the acceptor, at 0′ and 90′ from the donor compartment and the sample volume was replaced by fresh transport buffer. Prior to the experiment and after the final sampling, the TEER of the monolayers was measured.
(§4) The apparent permeability coefficient (Papp, [cm·s^−1]) was calculated according to equation 1, where dQ/dt is the permeability rate (steady state transport rate, [μg·s^−1]) obtained from the profile of the transported amount of the substrate against the time. A (1.13 cm^2) is the surface of the exposed cell monolayer, m0 the original mass [μg] of the marker substance in the donor compartment (VDonor 0.5 mL). The effective barrier function of the cell-layer is calculated from the apparent permeation coefficient and the permeation coefficient of the cell-free filter according to equation 2. In case that Papp is of higher magnitude than Pfilter, negative permeability coefficients would be calculated. Negative values for Peff are unsensical, thus an unhindered penetration of the cell-layer is to be drawn as conclusion. [formula]
(§5) In order to find an appropriate concentration affecting the permeation across the BBB, four different concentrations of hexyldiglycerol (HexylG2) were checked for their influence on fluorescein permeation and transendothelial electrical resistance.

For series [1], the system named is porcine brain microvascular endothelial cells (PBEC). Briefly: in vitro.
Description: as §1, §2, §3, §4, §5

Series [2] has the same test system. Description: Transendothelial electrical resistance (TEER) of PBEC monolayers. Format: cell-based. As to the method: […]. Propranolol was dissolved in KRB (pH 7.4).
Since a more distinct effect was expected from in vivo findings, a concentration of 75 mM HexylG2 was selected to be tested with further impermeable markers.

This is an account of results in patent US20040146535A1, “Agent for improving tissue penetration” (priority 2001, published 2004).

For the molecule `O=C1OC2(c3ccc(O)cc3Oc3cc(O)ccc32)c2ccccc21` [fluorescein, reference compound], the Papp A→B at 90 min in “in vitro” (Papp) was 0.28 ×10⁻⁶ cm/s; in “in vitro” (Peff), 0.29 ×10⁻⁶ cm/s.
With `OCC(O)CO` [^14C-glycerol, glycerol, reference compound], the “Peff, permeability coefficient of paracellular-transport marker” value in series [1] (pig, 90 min) was 0.96 ×10⁻⁶ cm/s.
Turning to hexyldiglycerol [HexylG2], the “change in TEER” value was “decrease in TEER” in series [2] (50 mM HexylG2 (Table 1 experiment)) and “complete loss of TEER” in series [2] (75 mM HexylG2 (Table 2 experiment)). In addition, the “effect on the tightness of the model barrier (fluorescein permeation and TEER)” value in series [1] (0.1 mM, 1 mM and 10 mM of HexylG2) is “no effect”. Also, the “enhancement of the penetration (permeability) of fluorescein” value in series [1] (50 mM HexylG2 versus w/o) is “about twofold”. Besides, in series [1] (treatment of PBEC monolayers, Example 4), the “monolayer permeability towards glucose, inulin and glycerol” value was “significantly increased”.
